Assay results reported in paper PMC8778133 (Pharmaceutics, 2021).
In brackets after ≈: the same amount, converted by molar mass. Several values for one entry are separate records, joined by “and”; a condition that tells them apart may be missing. Equal values may be shown once. Read-outs that look alike come from different tables or passages of the source.

Key:
[1] = pKa determination by potentiometric titration; type: physicochemical; settings: for pKa: 0.15 M KCl aqueous solution
Experimental: The sample was pre-alkalinized to pH 12 with 0.5 M standardized KOH. Then, it was titrated with standardized 0.5 M HCl. All titrations were carried out at 0.15 M ionic strength and a temperature of 25 °C, under a nitrogen atmosphere. […] The Debye–Hückel equation was used to obtain the thermodynamic pKa values.

[2] = Solubility by the shake-flask method; type: physicochemical; settings: for solubility at 24 h: universal buffer
Experimental: A universal buffer composed of 75 mM trifluoroacetic acid, 25 mM acetic acid, and 25 mM ethylenediamine, adjusted with 1M sodium hydroxide up to pH 7.5, was used (ionic strength, I = 0.1 M). Samples were prepared by adding a weighted amount of solid (enough to obtain saturated solutions) to 2 mL of the buffered solution. After this, solutions were shaken at a controlled temperature (25.0 ± 0.2 °C) for 24 h, but, after 4 h of agitation, the pH was checked and, if necessary, readjusted to the initial value with small amounts of 1 M hydrochloric acid or 1 M sodium hydroxide solution. After the 24 h stirring, samples were left to stand for equilibration for 24 more hours [32, 33, 34]. The pH was measured and phases separated by centrifugation in a Rotanta 460RS centrifuge from Hettich Lab Technology (Tuttlingen, Germany), at a controlled temperature (25 °C) and 3500 rpm for 30 min.
The remaining solid was dried under vacuum for 30 min and stored at 4 °C until XRPD analysis. […] A Shimadzu (Kyoto, Japan) liquid chromatograph, equipped with two LC-10AD pumps and a SPD-10AV detector, was used. Temperature was controlled at 25.0 ± 0.1 °C with a CTO-10AS column oven. The column was a Symmetry C18, with 5 μm particle size and dimensions of 4.6 × 150 mm from Waters (Milford, MA, USA). Mobile phase was composed of 20 mM phosphate buffer at pH 7 (A) and acetonitrile (B). Elution was in gradient mode (time (min), %B: 0,3; 1,3; 5,25; 10,25; 12,3; 15,3). […] To quantify, six standard solutions were prepared in the linear range (5–60 mgL^−1 for both compounds). Standards were dissolved in an acetonitrile/water mixture at a proportion of 25/75 (v/v). In a first attempt, saturated supernatants were injected directly, and, when necessary, they were appropriately diluted in water to ensure that they fit within the range of calibration.

[3] = design: method as in doi:10.1016/0378-5173(90)90130-V, PMID 16307530; settings: cited from earlier work
[4] = Intrinsic dissolution rate, small-scale dissolution assay at single GIT pH values; type: physicochemical; settings: for % Dissolved at t = 30 min / Dissolution Rate: SD in brackets; for Dissolution Rate: fitting of Equation (1), kdS
Experimental: Dissolution tests were performed with a small-scale dissolution assay installed in the GlpKaTM titrator. […] Then, 1.5 mL of 0.125 M acetate-phosphate buffer at pH 1.6 was introduced into the vial without wetting the tablet surface. […] The final volume was 15 mL. UV-visible absorption spectra were recorded every 30 s with a fiber-optic probe immersed in the solution. […] Spectral regions where the signal was saturated (A > 1.5) were discarded. Dissolution rate was obtained through the fitting of the first-order Noyes-Whitney exponential equation to the data:(1) [[…]0)) In this equation, [X]t is the weight (g) of compound in solution at a given time (min); […] Dissolution rate is calculated through a refinement process in which S, kd and t0 optimal values are obtained by minimizing the root mean square deviation between the modeled concentrations and the measured ones.

[5] = pH of saturated Norfloxacin solutions in dissolution media (pHx=0 effect test); type: physicochemical; settings: for pH of saturated solution after 24 h: agitation
Experimental: However, instead of adding a Norfloxacin tablet, the powder was directly weighted into the vials until saturated solutions of Norfloxacin were obtained. Then, the solutions were allowed to stand under agitation at 25 °C for 24 h. After this, the pH of the solutions was measured again. […] This effect is more evident for the API dissolution than for the cocrystal because the amount of API released in the cocrystal is lower compared to the pure API.

[6] = 4-sector pH dissolution test (pH stepped from 2.0 to 7.4); type: physicochemical; settings: 4-sector test
Experimental: To perform the 4-sector dissolution rate determinations, the same procedure was followed, but, after adjusting the initial pH to 2.0 and monitoring dissolution for 30 min at this pH, the pH was automatically raised to the next value by addition of KOH. Then, dissolution was monitored again for 30 more minutes. This stepping procedure was repeated until dissolution in the four sectors was covered.

[7] = water, 25 °C and 0 ionic strength, potentiometry, given as ref 37 (authors' unpublished work), read-out: pKa (first)

pKa [1, 7]	Final Solid Form ([4]; after dissolution at pH 2.0)	Final Solid Form ([4]; after dissolution at pH 4.0)	Final Solid Form ([4]; after dissolution at pH 5.5)	Final Solid Form ([4]; after dissolution at pH 7.4)	% Dissolved at t = 30 min ([4]; pH 2.0)	Dissolution Rate ([4]; pH 2.0)	% Dissolved at t = 30 min ([4]; pH 4.0)	Dissolution Rate ([4]; pH 4.0)	% Dissolved at t = 30 min ([4]; pH 5.5)	Dissolution Rate ([4]; pH 5.5)	% Dissolved at t = 30 min ([4]; pH 7.4)	Dissolution Rate ([4]; pH 7.4)	SMILES	further results
6.35 ± 0.04	Tetrahydrate	Tetrahydrate	Tetrahydrate	Tetrahydrate	100% and 101.2 (6.3) %	4.16 (0.73) μg min^−1	71% and 71.3 (6.9) %	0.79 (0.03) μg min^−1	23% and 23.0 (5.2) %	0.19 (0.02) μg min^−1	9.4 (1.0) %	0.06 (0.01) μg min^−1	CCn1cc(C(=O)O)c(=O)c2cc(F)c(N3CCNCC3)cc21 [Norfloxacin]	percentage of compound in the zwitterionic form ([1]; pH 5.5, species distribution (Figure S12)): around 12%; maximum percentage of the zwitterionic form ([1]; pH 7.5, species distribution from pKa values (Figure S12)): around 90%; pKa (second) ([1]; water, 25 °C and 0 ionic strength, potentiometry, given as ref 37 (authors' unpublished work)): 8.80 ± 0.04; solid phase obtained after the shake-flask experiments (XRPD) ([2]; aqueous buffer, 24 h stirring + 24 h standing, 25 °C): tetrahydrate; intrinsic solubility of the zwitterionic form (S0) ([2]; calculated from shake-flask solubility and Equation (7), pKa' at I = 0.1 M, corresponds to tetrahydrate form): 319 ± 19 µg/mL; solubility at 24 h ([2]; pH 7.25, shake-flask, 25 °C, I = 0.1 M, final pH 7.25, n = 3, solid transformed to tetrahydrate, read-out: solubility): 394 ± 18 µg/mL (≈ 1230 µM); solubility at 24 h ([2]; pH 7.5, calculated from shake-flask solubility and Equation (7), pKa' at I = 0.1 M, corresponds to tetrahydrate form, read-out: intrinsic solubility of the zwitterionic form (S0)): 320 ± 20 µg/mL (≈ 1000 µM); oral bioavailability [3]: ~ 40%; % Dissolved at t = 30 min ([4]; pH 2.0, listed as API): complete; % Dissolved at t = 30 min ([4]; pH 7.4, listed as API): 7%; pH of saturated solution after 24 h ([5]; dissolution medium initially at pH 4.0, 25 °C): 5.8; pH of saturated solution after 24 h ([5]; dissolution medium initially at pH 5.5, 25 °C): 6.2; pH of saturated solution after 24 h ([5]; dissolution medium initially at pH 7.4, 25 °C): 7.4; positive pH increment ([5]; initial pH 4.0): 1.8 units; positive pH increment ([5]; initial pH 5.5): 0.7 units; positive pH increment ([5]; initial pH 7.4): 0 units
	Monohydrate	Monohydrate	Monohydrate	Monohydrate	94.4 (1.1) %	2.53 (1.63) μg min^−1	91.2 (0.9) %	0.70 (0.15) μg min^−1	48.0 (12.5) %	0.33 (0.04) μg min^−1	9.6 (1.0) %	0.19 (0.10) μg min^−1	CCn1cc(C(=O)O)c(=O)c2cc(F)c(N3CCNCC3)cc21.Oc1cccc(O)c1 [Norfloxacin–resorcinol cocrystal]	percentage of the API remaining in the solution ([6]; after pH increased to 7.4 (sudden precipitation)): 80%; percentage of Norfloxacin in the solution ([6]; from pH 2.0 to pH 5.5, 30 min at each pH): ~90%; dissolution in the first sector ([6]; pH 2.0, 30 min): almost complete dissolution; % Dissolved at t = 30 min ([4]; pH 5.5, listed as cocrystal): 48%; % Dissolved at t = 30 min ([4]; pH 7.4, listed as cocrystal): 7%
9.47 ± 0.02													Oc1cccc(O)c1 [Resorcinol, resorcinol]	pKa ([1]; water, 25 °C and 0 ionic strength, potentiometry, given as ref 37 (authors' unpublished work), read-out: pKa (second)): 11.6 ± 0.04
